IC50, EC50 and AC50 data for 35 molecules are collected here from ChEMBL document CHEMBL1201862, “PubChem BioAssay data set” (2004).

SMILES strings stand for the structures. Calls of active or inactive are those of the source.

Assay [1] has as its target T1, Fatty acid synthase (Homo sapiens, UniProt P49327). The assay can be described thus: inhibition of human FAS-TE enzyme activity – biochemical, endpoint fluorescence intensity, uHTS hits, dose response (AID 624327).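 Note: fluorescence from hydrolysis of an O-methyl fluorescein acyl ester substrate by the enzyme.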 Type of assay: functional.
In assay [2] the target is T1, Fatty acid synthase. The assay can be described thus: inhibition of human FAS-TE enzyme activity – biochemical, kinetic fluorescence intensity, dose response (AID 624326).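 Note: rate of fluorescence rise from hydrolysis of a fluorogenic O-methyl fluorescein ester substrate.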 The class given is functional.
Assay [3] concerns the target T2, Zinc finger protein mex-5 (Caenorhabditis elegans, UniProt Q9XUB2).
T2 sequence (Q9XUB2 whole entry): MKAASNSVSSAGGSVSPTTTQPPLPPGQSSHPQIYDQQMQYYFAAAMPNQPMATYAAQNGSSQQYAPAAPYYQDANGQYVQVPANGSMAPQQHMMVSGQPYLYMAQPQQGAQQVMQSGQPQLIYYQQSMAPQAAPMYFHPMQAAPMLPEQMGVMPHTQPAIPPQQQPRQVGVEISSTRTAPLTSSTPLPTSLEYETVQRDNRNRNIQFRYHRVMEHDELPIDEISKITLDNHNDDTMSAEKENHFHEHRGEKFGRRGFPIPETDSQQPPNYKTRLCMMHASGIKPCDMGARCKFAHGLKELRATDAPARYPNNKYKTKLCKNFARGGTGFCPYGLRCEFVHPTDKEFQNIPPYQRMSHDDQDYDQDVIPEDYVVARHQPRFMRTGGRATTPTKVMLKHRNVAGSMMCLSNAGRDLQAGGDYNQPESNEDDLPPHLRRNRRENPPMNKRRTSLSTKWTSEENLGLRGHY
The assay can be described thus: potency of MEX-5 RNA-binding blockers – biochemical, C. elegans, fluorescence polarization, dose response (AID 1960). (Polarisation of emitted light reports the rotation of a fluorescent probe.)

Assay [4] addresses T3, Corticotropin-releasing factor receptor 2/Corticotropin-releasing factor-binding protein (Homo sapiens, UniProt P24387+Q13324).
T3 sequence (Q13324 whole entry): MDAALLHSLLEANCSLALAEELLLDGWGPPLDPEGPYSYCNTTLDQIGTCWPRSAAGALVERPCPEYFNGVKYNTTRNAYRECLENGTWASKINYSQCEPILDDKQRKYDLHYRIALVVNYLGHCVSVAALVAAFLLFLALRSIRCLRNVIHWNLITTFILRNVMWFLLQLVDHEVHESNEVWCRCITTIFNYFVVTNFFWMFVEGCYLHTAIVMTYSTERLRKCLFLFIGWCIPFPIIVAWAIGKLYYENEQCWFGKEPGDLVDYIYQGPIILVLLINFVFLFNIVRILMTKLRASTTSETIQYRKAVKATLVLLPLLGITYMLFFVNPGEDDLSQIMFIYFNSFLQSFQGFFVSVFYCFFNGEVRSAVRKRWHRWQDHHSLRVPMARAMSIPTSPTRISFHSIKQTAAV
T3 sequence (P24387 whole entry): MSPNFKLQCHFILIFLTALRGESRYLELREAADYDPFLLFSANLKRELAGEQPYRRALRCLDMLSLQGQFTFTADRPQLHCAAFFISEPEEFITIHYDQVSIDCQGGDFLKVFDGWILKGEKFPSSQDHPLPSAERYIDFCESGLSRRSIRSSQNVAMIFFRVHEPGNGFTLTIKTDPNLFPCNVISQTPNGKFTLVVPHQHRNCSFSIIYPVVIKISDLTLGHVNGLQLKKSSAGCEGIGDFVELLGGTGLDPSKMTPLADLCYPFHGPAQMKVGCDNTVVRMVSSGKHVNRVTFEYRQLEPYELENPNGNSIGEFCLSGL
The experiment in a line: activators of CRF receptor 2 with binding protein – uHTS hits, confirmation (AID 602473). Type of assay: functional. The note with it: read-out: EC50_Mean.

Assay [5] concerns the target T4, RNA-binding protein pos-1 (Caenorhabditis elegans, UniProt G5EF15).
T4 sequence (G5EF15 whole entry): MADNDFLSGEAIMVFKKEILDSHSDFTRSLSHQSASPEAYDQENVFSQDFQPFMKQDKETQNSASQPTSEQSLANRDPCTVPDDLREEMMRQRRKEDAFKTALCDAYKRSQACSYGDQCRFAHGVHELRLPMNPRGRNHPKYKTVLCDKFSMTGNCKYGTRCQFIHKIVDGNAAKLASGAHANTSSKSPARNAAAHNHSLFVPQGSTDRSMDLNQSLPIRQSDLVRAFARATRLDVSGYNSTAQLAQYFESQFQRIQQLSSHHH
The assay can be described thus: disruptors of C. elegans POS-1 RNA interaction – biochemical, fluorescence polarization, dose response (AID 1964).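 Note: purified POS-1 fused to maltose binding protein made in E. coli; potency of compounds blocking POS-1 binding to fluorescent RNA.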

The target of assay [6] is Cytochrome P450 2C19 (Homo sapiens, UniProt P33261). The assay can be described thus: Cytochrome panel assay with activity outcomes. Panel member name: p450-cyp2c19 Compounds with AC50 equal or less than 10 uM are considered active. The class given is functional. To be noted: read-out: AC50.
Assay [7] deals with Cytochrome P450 2D6 (Homo sapiens, UniProt P10635).
Assay [8] has as its target Cytochrome P450 3A4 (Homo sapiens, UniProt P08684).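 Note: CYP3A4 tested as one member of a cytochrome P450 panel screen.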
Assay [9] deals with Large T antigen (Simian virus 40, UniProt P03070). The class given is functional, Betapolyomavirus macacae.
Assay [10] deals with Cytochrome P450 2C9 (Homo sapiens, UniProt P11712).
A short description of assay [11]: non-specific 3'UTR reporter inhibition in Clone20-Shn3RL – cell-based, Renilla luciferase, cherry-picked, counter-screen for Shn3 inhibitor project, dose response (AID 624133). The class given is functional. In general terms: Counterscreens check selectivity or assay interference.
Assay [12] can be described thus: reduction of Shn3 3'UTR-driven luciferase in osteoblasts – cell-based, Clone20 osteoblasts, firefly luciferase, cherry-picked, dose response (AID 624132).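 Note: firefly luciferase luminescence from reporter carrying the Shn3 3'UTR in osteoblasts.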 Type of assay: functional.
In assay [13] the target is T5, Rac GTPase-activating protein 1 (Homo sapiens, UniProt Q9H0H5).
T5 sequence (Q9H0H5 whole entry): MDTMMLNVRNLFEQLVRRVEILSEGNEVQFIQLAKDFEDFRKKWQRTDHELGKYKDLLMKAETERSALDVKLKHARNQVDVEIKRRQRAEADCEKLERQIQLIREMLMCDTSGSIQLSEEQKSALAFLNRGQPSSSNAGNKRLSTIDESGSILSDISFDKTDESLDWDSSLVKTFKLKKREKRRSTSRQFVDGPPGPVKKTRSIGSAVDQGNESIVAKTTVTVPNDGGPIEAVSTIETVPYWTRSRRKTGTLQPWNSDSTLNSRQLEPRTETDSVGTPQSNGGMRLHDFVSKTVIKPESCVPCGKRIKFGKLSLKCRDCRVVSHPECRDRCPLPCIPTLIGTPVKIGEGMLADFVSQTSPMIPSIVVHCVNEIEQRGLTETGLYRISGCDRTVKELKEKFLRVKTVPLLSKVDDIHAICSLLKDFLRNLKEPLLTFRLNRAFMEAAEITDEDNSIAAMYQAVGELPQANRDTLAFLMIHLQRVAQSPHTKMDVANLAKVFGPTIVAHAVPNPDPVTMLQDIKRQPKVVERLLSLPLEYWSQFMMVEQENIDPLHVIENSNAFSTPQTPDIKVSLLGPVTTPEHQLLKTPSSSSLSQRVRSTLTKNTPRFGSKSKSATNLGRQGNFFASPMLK
The experiment in a line: blockers of MgcRacGAP-driven Rac1 GTP hydrolysis – biochemical, ADP Hunter fluorescence, primary and confirmatory, confirmation (AID 624330). The class given is functional.

Cytochrome P450 2C19, sequence (P33261 whole entry): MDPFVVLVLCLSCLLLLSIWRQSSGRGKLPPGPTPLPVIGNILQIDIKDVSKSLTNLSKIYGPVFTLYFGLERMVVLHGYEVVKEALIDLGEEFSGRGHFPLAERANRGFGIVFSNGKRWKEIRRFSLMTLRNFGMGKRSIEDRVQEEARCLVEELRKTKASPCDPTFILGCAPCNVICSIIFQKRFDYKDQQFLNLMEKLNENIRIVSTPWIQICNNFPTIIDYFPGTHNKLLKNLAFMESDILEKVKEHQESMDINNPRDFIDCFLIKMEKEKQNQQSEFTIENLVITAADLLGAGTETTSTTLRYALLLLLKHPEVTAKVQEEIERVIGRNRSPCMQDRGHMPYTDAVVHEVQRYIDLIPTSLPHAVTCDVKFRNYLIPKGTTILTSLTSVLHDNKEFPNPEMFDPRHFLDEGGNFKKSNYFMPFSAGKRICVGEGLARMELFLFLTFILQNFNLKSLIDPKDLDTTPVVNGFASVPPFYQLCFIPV
T1 sequence (P49327 whole entry): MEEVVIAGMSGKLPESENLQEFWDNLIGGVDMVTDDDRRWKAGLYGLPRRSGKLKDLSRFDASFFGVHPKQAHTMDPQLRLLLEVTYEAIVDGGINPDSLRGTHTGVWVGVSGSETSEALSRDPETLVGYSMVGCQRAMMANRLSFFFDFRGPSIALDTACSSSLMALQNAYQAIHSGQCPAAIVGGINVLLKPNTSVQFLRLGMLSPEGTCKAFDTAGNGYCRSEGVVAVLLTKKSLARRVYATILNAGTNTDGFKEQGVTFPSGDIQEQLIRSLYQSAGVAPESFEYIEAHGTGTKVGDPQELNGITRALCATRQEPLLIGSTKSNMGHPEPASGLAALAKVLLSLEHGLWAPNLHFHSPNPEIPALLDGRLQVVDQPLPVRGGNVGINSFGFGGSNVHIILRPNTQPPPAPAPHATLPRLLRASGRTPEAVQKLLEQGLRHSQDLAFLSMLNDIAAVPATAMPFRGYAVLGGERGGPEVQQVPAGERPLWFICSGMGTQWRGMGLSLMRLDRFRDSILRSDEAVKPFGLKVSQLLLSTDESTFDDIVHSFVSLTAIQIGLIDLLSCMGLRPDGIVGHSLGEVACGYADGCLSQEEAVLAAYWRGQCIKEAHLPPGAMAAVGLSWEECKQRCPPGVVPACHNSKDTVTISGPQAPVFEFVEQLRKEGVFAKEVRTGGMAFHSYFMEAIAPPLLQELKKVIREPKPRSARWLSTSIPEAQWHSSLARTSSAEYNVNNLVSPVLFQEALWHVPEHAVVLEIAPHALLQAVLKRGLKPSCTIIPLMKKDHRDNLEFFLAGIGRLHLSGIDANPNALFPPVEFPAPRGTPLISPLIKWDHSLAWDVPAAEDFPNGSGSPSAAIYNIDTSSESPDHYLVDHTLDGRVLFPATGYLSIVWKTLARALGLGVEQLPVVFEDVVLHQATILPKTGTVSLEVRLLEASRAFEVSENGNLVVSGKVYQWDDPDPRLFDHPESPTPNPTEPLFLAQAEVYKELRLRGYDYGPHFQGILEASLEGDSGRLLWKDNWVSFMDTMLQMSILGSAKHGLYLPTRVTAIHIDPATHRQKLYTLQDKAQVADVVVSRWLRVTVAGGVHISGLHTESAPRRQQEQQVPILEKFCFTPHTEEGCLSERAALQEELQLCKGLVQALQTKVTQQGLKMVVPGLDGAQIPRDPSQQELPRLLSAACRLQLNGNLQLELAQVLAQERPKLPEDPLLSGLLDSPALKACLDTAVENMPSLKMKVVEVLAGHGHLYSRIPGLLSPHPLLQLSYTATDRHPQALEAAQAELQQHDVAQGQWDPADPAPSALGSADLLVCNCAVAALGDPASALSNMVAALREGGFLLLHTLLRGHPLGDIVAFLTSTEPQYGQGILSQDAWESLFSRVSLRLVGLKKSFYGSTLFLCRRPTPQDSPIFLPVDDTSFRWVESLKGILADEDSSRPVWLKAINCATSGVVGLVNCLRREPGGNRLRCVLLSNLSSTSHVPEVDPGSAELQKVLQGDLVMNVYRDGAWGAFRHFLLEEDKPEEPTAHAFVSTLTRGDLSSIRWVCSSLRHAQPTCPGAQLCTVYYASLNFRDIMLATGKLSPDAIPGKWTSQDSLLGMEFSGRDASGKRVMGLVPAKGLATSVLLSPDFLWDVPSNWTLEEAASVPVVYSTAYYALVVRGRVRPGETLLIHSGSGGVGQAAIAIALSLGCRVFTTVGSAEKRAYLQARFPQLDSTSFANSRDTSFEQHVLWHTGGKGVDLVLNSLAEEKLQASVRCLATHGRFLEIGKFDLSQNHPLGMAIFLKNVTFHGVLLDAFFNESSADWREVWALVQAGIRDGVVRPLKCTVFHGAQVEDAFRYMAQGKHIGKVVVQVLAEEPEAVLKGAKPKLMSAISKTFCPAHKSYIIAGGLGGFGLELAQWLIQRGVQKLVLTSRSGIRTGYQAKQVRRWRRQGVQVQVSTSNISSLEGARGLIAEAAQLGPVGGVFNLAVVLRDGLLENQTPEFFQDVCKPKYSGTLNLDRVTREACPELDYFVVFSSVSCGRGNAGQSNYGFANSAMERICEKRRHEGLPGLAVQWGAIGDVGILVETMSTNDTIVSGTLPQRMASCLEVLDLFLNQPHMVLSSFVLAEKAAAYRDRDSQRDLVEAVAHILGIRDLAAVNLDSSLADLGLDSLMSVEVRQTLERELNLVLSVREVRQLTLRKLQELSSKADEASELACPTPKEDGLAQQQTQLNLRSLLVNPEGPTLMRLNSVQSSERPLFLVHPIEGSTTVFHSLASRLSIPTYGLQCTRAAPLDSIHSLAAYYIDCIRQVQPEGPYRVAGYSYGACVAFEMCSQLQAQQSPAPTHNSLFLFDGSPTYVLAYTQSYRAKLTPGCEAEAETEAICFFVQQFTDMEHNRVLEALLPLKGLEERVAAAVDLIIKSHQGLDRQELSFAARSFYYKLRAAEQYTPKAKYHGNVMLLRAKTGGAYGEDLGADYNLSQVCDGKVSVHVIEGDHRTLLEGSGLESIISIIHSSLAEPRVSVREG
Cytochrome P450 2D6, sequence (P10635 whole entry): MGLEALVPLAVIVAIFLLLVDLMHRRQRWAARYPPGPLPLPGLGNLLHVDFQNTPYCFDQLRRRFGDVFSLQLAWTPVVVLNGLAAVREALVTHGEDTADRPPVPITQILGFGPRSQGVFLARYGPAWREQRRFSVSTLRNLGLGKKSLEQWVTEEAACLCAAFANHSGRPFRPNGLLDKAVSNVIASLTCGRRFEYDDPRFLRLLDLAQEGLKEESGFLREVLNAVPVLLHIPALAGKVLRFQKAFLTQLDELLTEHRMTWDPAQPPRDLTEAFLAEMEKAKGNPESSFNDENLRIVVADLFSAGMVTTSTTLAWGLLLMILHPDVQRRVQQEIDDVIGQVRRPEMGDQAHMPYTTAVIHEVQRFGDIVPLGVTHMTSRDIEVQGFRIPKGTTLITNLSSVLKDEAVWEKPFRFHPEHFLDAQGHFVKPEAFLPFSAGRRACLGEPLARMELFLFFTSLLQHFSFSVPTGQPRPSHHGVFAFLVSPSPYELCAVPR
Large T antigen, sequence (P03070 whole entry): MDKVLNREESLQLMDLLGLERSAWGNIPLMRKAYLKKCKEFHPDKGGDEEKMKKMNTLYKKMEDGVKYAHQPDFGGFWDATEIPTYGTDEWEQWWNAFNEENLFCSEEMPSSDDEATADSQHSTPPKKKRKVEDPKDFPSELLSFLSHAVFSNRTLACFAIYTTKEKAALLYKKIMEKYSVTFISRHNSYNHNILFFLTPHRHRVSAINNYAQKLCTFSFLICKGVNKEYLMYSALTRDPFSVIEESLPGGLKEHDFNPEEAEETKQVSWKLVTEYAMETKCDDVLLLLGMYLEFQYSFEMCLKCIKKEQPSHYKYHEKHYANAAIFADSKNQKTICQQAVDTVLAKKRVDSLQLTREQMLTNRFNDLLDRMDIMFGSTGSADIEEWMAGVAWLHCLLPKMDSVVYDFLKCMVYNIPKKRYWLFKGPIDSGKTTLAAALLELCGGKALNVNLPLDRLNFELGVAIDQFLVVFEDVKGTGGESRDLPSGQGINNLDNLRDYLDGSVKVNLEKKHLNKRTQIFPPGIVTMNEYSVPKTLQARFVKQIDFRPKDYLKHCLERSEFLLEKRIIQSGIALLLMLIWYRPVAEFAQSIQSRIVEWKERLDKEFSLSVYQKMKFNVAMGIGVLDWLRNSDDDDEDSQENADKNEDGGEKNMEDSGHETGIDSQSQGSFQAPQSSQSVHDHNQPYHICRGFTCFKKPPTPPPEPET
Cytochrome P450 3A4, sequence (P08684 whole entry): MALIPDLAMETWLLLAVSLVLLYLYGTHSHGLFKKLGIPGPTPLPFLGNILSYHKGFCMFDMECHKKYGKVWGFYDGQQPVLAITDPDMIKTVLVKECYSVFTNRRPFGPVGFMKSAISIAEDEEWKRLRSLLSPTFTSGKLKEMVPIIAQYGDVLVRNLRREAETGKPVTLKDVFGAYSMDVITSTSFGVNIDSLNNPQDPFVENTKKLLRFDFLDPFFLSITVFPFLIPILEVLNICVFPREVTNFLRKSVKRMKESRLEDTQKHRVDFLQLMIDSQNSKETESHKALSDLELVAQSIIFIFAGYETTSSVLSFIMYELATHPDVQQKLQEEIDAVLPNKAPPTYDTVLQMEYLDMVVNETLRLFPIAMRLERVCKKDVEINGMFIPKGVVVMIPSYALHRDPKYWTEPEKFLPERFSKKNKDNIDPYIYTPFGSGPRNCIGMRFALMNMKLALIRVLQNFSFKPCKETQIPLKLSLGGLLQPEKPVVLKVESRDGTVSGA

One may read the IC50 as the concentration that gives 50% inhibition. Consider `O=C(NCc1ccc2c(c1)OCO2)c1cc([N+](=O)[O-])ccc1N1CCCCC1`, for which the IC50 in [1] was 10.5 µM (active); in [2] it was 5.03 µM (active). As for `O=C(O)C(=O)/C(=C\c1cccc2ccccc12)c1ccc2ccccc2n1`, the EC50 in [3] is 34.2 µM (active); in assay [4] it was 7.6 µM (active); in assay [5], 164 µM (active).

Consider `Cc1cc2c3c(c1C)C1(C(=O)N3C(C)(C)CC2C)C(C#N)=C(N)OC2=C1C(=O)CC(C)(C)C2` (centres undefined), for which the EC50 in [3] and in [5] was > 300 µM (not active) in each case. In general, AC50 refers to the concentration at which the activity in the assay is half-maximal. `CCCCC(=O)NCCc1c(Cc2ccccc2)[nH]c2ccccc12`: the AC50 is 20 µM (inconclusive) in assay [6] and 39.8 µM (inconclusive) in assay [7]. As to `CCOC(=O)CC(=O)CSc1n[nH]c2c3ccccc3nc-2n1`, the AC50 in [8] was 2.51 µM (inconclusive); in [7], 3.55 µM (inconclusive). Turning to `Sc1nnc(COc2ccccc2)n1/N=C/C=C/c1ccco1`, the IC50 in assay [9] was > 100 µM (active). Regarding `Cc1cc(C)cc(NS(=O)(=O)c2ccc3ncc(C(=O)N4CCc5ccccc54)c(O)c3c2)c1`, the EC50 in [4] was > 53 µM (inactive). As for `CN1C(=O)/C(=C\c2ccc(N3CCCCC3)o2)C(=O)NC1=S`, the EC50 in assay [3] and in assay [5] was > 300 µM (not active) throughout. `Cc1cc(/C=C2\C(=O)NC(=O)N(Cc3ccco3)C2=O)c(C)n1-c1ccc(C(=O)O)cc1`: the EC50 in [3] is > 300 µM (inconclusive).

Take `Fc1c(F)c(F)c(N/N=C/c2c[nH]c3ccccc23)c(F)c1F`: the IC50 in [1] was 11.5 µM (active); in [2], 12.4 µM (active). With `Cc1c(N2CCCC2)cc2c(c1NC(=O)c1ccccc1Cl)C(C)(C)CC2(C)C`, the AC50 was 0.631 µM (inconclusive) in assay [8] and 3.16 µM (inconclusive) in assay [7].

For `C=CCN(CC=C)C(=O)C(=O)c1cc(C)n(-c2ccc([N+](=O)[O-])cc2)c1C`, the AC50 in [7] was 3.98 µM (inconclusive); in [10], 15.8 µM (inconclusive). As for `FC(F)(F)c1nc(N2CCCC2)ncc1-c1nnnn1-c1ccccc1`, in assay [7], the AC50 was 12.6 µM (inconclusive). As for `O=C(CSCc1c(Cl)cccc1Cl)NCC1CCCO1` (centres undefined), the EC50 in assay [3] and in assay [5] was > 300 µM (not active) each time. As for `O=C(Nc1ccc(O)cc1)c1ccc2c(c1)C(=O)N(N1C(=O)c3ccccc3C1=O)C2=O`, the IC50 in assay [9] is 21.4 µM (active).

As for `COc1cc(/C=C2/C(C)=C(C#N)c3nc(N)c(C#N)c(C)c32)ccc1OCC(=O)O`, the IC50 in assay [9] was 89.5 µM (active).

For the molecule `CC1CCCN(c2ccc(N)cc2C(N)=O)C1` (centres undefined), the IC50 in [9] is 44.6 µM (active). On to `CCN1C(=O)[C@H]2[C@@H](c3ccc(C)cc3)N3C(=O)N(c4cccc(Cl)c4)C(=O)[C@@]3(Cc3ccc(Cl)cc3)[C@H]2C1=O`, for which the figures for the IC50 in assay [1] and in assay [2] were 12 µM (active) and 16.1 µM (active), respectively. Consider `O=C1CC(=O)N(Cc2ccco2)C(=S)N1`, for which the IC50 in assay [9] was 55.5 µM (active). As for `CCOC(=O)C1CCN(C(=O)c2ccc(OCC(=O)Nc3cccc(C(F)(F)F)c3)c(OC)c2)CC1`, the results for the AC50 in assay [11] and in assay [12] were 4.69 µM (active) and 1.75 µM (active), respectively. Consider `N#CC(C#N)=Cc1ccc(-c2ccccc2)o1`, for which the EC50 was 22.5 µM (inconclusive) in assay [3] and 6.78 µM (inconclusive) in assay [5]. Regarding `COc1ccc([N+](=O)[O-])cc1NC(=O)c1ccc(N(Cc2ccccc2C)S(C)(=O)=O)cc1`, the concentration for half-maximal inhibition (IC50) in assay [1] was 9.88 µM (active); in [2], 6.91 µM (active).

Regarding `COc1cccc(C(=O)NC2CC3CCCC(C2)N3CC(=O)Nc2ccc(N(C)C)cc2)c1` (centres undefined), the IC50 in [9] is 6.24 µM (active). For `CCN(CC)C(=O)C1=C(C)N(Cc2ccc(F)cc2)C(=O)C(CC(=O)NC(c2ccccc2)c2ccccc2)C1` (centres undefined), the IC50 in [1] is 9.6 µM (active); in [2], 7.98 µM (active). For the molecule `CCCSc1nnc2nc3c(nn12)c1ccccc1n3C`, the EC50 in assay [3] is 76.6 µM (active); in [5], > 300 µM (not active). Consider `COc1cc(C=C2C(=O)NC(=O)NC2=O)ccc1O`, for which the IC50 in [9] is 28 µM (active). For the molecule `CCn1c(SCC(=O)Nc2ncc(C(F)(F)F)cc2Cl)nnc1-c1cccc(C)c1`, the figures for the IC50 in [1] and in assay [2] were 3.66 µM (active) and 3.94 µM (active), respectively. For `COc1cc(OC)c(C2CC(=O)N3CN(c4ccccc4C)CSC3=C2C#N)cc1OC` (centres undefined), the concentration for half-maximal inhibition (IC50) in assay [9] is 54.8 µM (active). With `CCC(C)N1C(=O)/C(=C\NNc2nc3c(c(=O)n(C)c(=O)n3C)n2C)C(=O)NC1=S` (centres undefined), the EC50 was 38.6 µM (active) in [3] and > 300 µM (not active) in [5]. Consider `COc1ccc(NC2CCCN(C(=O)CCCn3cncn3)C2)cc1` (centres undefined), for which, in [9], the IC50 is 52.6 µM (active).

`CCOc1cc(/C=N/Nc2ncnc(Cl)c2N)ccc1O`: the IC50 is 6.12 µM (active) in assay [9] and 25.2 µM (active) in assay [13]. In the case of `CCOc1ccc(NC(=O)CN(c2ccc([N+](=O)[O-])cc2)S(=O)(=O)c2ccccc2)cc1`, the IC50 in [1] is 10.5 µM (active); in assay [2], 7.65 µM (active).

Take `C#CCOC(=O)NC(/C=C/CCCC)c1ccccc1` (centres undefined): the figures for the AC50 in [6] and in assay [7] were 25.1 µM (inconclusive) and 20 µM (inconclusive), respectively. For `CNc1ncnc2ccc(-c3cccc(NS(C)(=O)=O)c3)cc12`, in that order: 20 µM (inconclusive) and 39.8 µM (inconclusive). As for `CC(C)(C)NS(=O)(=O)c1ccc(NC(=O)NC2CCCCC2)cc1`, the results for the AC50 in assay [6] and in assay [7] were 25.1 µM (inconclusive) and 17.8 µM (inconclusive), respectively.
